Converted amounts (≈) assume the structure as drawn.
What was measured:
Assay type in all cases: cell-based
[1] = tested on: S. cerevisiae CW63 strain; assay: Fungal growth of S. cerevisiae CW63 strain by visual observation; conditions: FIG. 2
Protocol: (§1) After stationary cultivation in YPD liquid medium at 30° C. for 48 hours, the yeast cell culture was diluted 100 times with YPD liquid medium (3-5×10^5 cells/ml) and 75 μl/well aliquots thereof were inoculated into a V-bottomed 96-well plate containing 25 μl/well of a diluted test sample, and this was subjected to stationary cultivation at 30° C. for 48 hours. After centrifuging the plate, 25 μl of the supernatant was sampled and placed in a flat-bottomed 96-well plate, and this was used as the culture supernatant fraction.
Furthermore, fungal growth in the presence of the test sample was determined by visual observation.

[2] = tested on: adhesion of C. albicans to animal cells; assay: Adhesion of C. albicans to animal cells (IEC-18); conditions: 1.56 μg/ml, immobilized IEC-18 cells, FIG. 3
Protocol: Three-milliliter aliquots of IEC-18 cells (1×10^5 cells/ml in D-MEM medium (Nissui Pharmaceutical) containing 10% fetal calf serum and 2 mM glutamine) were placed in each well of a 6-well multi-well plate. The plate was incubated in a carbon dioxide gas incubator at 37° C. for 3 days, the culture supernatant was removed, and ethanol immobilization was carried out.
C. albicans cultured in Sabouraud Dextrose Liquid Medium containing various concentrations of the test sample at 30° C. for 48 hours was adjusted to 4×10^2 cells/ml, and 1 ml was inoculated into each well of the plate in which the immobilized IEC-18 cells were cultured. After cultivation at 30° C. for 1 hour, the culture supernatant was removed, washed with PBS, and then 2 ml of Sabouraud Dextrose Agar Medium (Difco) was superposed. After cultivation at 30° C. overnight, the number of colonies (CFU) that had grown was counted and the adhesion rate was calculated.

C. albicans = assay: Growth of C. albicans in the presence of the compound
C. albicans cell wall = assay: Transmission electron microscopy of the C. albicans cell wall; conditions: C. albicans cultured in the presence of the compound, compared to untreated cells
Protocol: C. albicans which was cultured in Sabouraud Dextrose Liquid Medium (5 ml) containing various concentrations of the test agent at 30° C. for 48 hours, then centrifuged, and collected, was immobilized by potassium permanganate immobilization method, and the transmission electron microscope image thereof was observed.
This flocculent fibrous structure was not influenced by other existing antifungal agents.

[3] = tested on: process that transports GPI-anchored proteins to the cell wall; assay: Reporter system in S. cerevisiae overexpressing the GWT1 gene product (CW63/GWT1 strain); conditions: 0.39 to 1.56 μg/ml, FIG. 6
Protocol: (§2) S. cerevisiae CW63 strain having a cephalosporinase gene as the reporter gene was cultured by the method according to Example A1, TRP1 of the integration vector was cleaved with EcoRV, and then transformation was carried out by the method of Example A1. GWT1-overexpressed strain (S. cerevisiae CW63/GWT1 strain) was obtained by culturing in SD(Trp^−) medium at 30° C. for 3 days.
(§3) Using S. cerevisiae CW63 strain and GWT1 gene introduced S. cerevisiae CW63/GWT1, activity of the aforementioned compound (Ia) was examined by a method according to the method described in Example A2.

[4] = tested on: S. cerevisiae CW63/GWT1 strain; assay: Growth of GWT1-overexpressed S. cerevisiae CW63/GWT1 strain; conditions: for sensitivity or resistance of the GWT1-overexpressed strain: GWT1-overexpressed strain compared with wild type strain
Protocol: as §2, §3

GWT1-deficient strain = assay: Growth of GWT1-deficient S. cerevisiae strain
Protocol: His5 cassette containing the GWT1 sequence on both ends was amplified by PCR using the his5 gene of S. pombe (Longtine M S et al, Yeast, 14: 953-961, 1998) as template and SEQ ID NO:25 and SEQ ID NO:26 as primers.
S. cerevisiae G2-10 was cultured and the cells were collected by the method according to Example A1, and the abovementioned PCR product was transformed by the method according to Example A1. A GWT1-deficient strain was obtained by cultivation in SD(His^−) medium at 30° C. for 5 to 7 days.

[5] = tested on: mutant GWT1 gene (R1 or R5); assay: Growth of GWT1-disrupted S. cerevisiae clone harbouring mutant GWT1 gene (R1 or R5) plasmid; conditions: chromosomal GWT1 disrupted, pRS316GWT1-R1 or pRS316GWT1-R5, medium containing the compound
Protocol: S. cerevisiae LW63 strain having a lysozyme gene as the reporter gene due to introduction of pRLW63T was treated with ethyl methanesulfonate, then by culturing in a SD medium containing the aforementioned compound of the formula (Ia) at concentrations of 1.56, 3.13, and 6.25 μg/ml at 37° C. for 3 days, five resistant mutant strains (R1 to R5) were obtained. […] To confirm whether or not these two mutant strains have mutations on the GWT1 gene, genomic DNAs were extracted from both mutant strains, and the nucleotide sequence of the GWT1 gene portion was determined. As a result, in the R1 mutant strain, guanine at position 1213 had been mutated to adenine. Furthermore, in the R5 mutant strain, guanine at position 418 had been mutated to adenine. Therefore, it was elucidated that in the R1 mutant strain, the 405th amino acid, […], and in the R5 mutant strain, the 140th amino acid, glycine, had been changed to arginine.
Next, to confirm whether or not these mutations are the cause of the acquisition of the specific resistant characteristic to the aforementioned compound of the formula (Ia), the mutant GWT1 gene (R1 or R5) was isolated using the genomic DNAs derived from both mutant strains as templates and the primers of SEQ ID NOs: 60 and 61. […]

[6] = tested on: process that transports GPI-anchored proteins to the cell wall; assay: S. cerevisiae reporter system (cephalosporinase-CWP2 fusion, CW63 strain); conditions: S. cerevisiae reporter system of Example A2, cell wall fraction
Protocol: Since sensitivity of the enzyme reaction is better with cephalosporinase compared to lysozyme, S. cerevisiae introduced with pRCW63T (S. cerevisiae CW63 strain) was used for the screening of compounds.
as §1
The precipitated cells were suspended, and 75 μl/well aliquots of Zymolyase (Seikagaku Corporation) solution prepared with 2.4 M sorbitol were added and were allowed to react at 30° C. for 1 hour. After centrifuging the plate, 10 μl of the supernatant was sampled and placed in a flat-bottomed 96-well plate, 15 μl of phosphate buffer was added, and this was used as the cell wall fraction.
The cephalosporinase activities in the medium and in the cell wall fraction were measured by adding 200 μM of nitrocefin solution to a pooled sample, and after a certain period of time, stopping the reaction with citric acid buffer, and then measuring the absorbance at 490 nm.
Compounds were evaluated using the S. cerevisiae reporter system of Example A2. The lowest concentration at which cephalosporinase activity in the cell wall fraction became 50% or less compared to that obtained where the compound was not treated, was defined to be the IC50 value.

SMILES | sensitivity or resistance of the GWT1-overexpressed strain [4] | IC50 (lowest concentration at which cephalosporinase activity in the cell wall fraction became 50% or less compared to no compound) [6] [µg/mL] | further results
CCCCc1ccc(Cc2nccc3ccccc23)cc1 [compound (Ia), 1-(4-butylbenzyl)isoquinoline] | showing resistance | – | concentration at which growth inhibition was observed [1]: ≥ 3.13 µg/mL; adhesion of C. albicans to animal cells [2]: inhibited to about a half; growth inhibition of C. albicans (C. albicans; 1.56 μg/ml): growth inhibition cannot be observed; growth of C. albicans (C. albicans; no concentration stated): inhibits the growth; flocculent fibrous structure of the outermost layer of the cell having high electron density (C. albicans cell wall): disappeared leaving a small amount of the layer with high electron density; influence on cephalosporinase activity in culture supernatant and cell wall fractions [3]: no influence was observed; growth inhibition ([4]; CW63/GWT1 strain, >3.13 μg/ml, FIG. 6): growth inhibition was not observed; influence on growth of the GWT1-deficient strain (GWT1-deficient strain): growth is not influenced; resistance of clone expressing a single copy of mutant GWT1 gene (R1 or R5) [5]: resistance to the aforementioned compound of the formula (Ia) was seen
C[C@@H]1C[C@@H]([C@H](O)CC2CC(=O)NC(=O)C2)C(=O)[C@@H](C)C1 [cycloheximide] | sensitive | – | –
CC(=O)NCC#Cc1ccc(Cc2nccc3ccccc23)cc1 [Example B60, N-{3-[4-(1-Isoquinolylmethyl)phenyl]-2-propynyl}acetamide] | – | 6.25 (≈ 19.9 µM) | –
CCCCNC(=O)n1c(NC(=O)OC)nc2ccccc21 [benomyl] | sensitive | – | –
CCCCc1ccc(Cc2ncccc2OC)cc1 [Example B231, 2-(4-Butylbenzyl)-3-methoxypyridine] | – | 0.78 (≈ 3.05 µM) | –
CCCCc1ccc(Cc2nccc3ccsc23)cc1 [Example B195, 7-(4-Butylbenzyl)thieno[2,3-c]pyridine] | – | 0.39 (≈ 1.39 µM) | –
C[C@@H]1[C@H](O)[C@@H](C)/C=C/C=C/C=C/C=C/C=C/C=C/C=C/[C@H](O[C@@H]2O[C@H](C)[C@@H](O)[C@H](N)[C@@H]2O)C[C@@H]2O[C@](O)(C[C@@H](O)C[C@@H](O)[C@H](O)CC[C@@H](O)C[C@@H](O)CC(=O)O[C@H]1C)C[C@H](O)[C@H]2C(=O)O [amphotericin B] | sensitive | – | –
CCCCc1ccc(Cc2nccc(OC)c2OC)cc1 [Example B242, 2-(4-Butylbenzyl)-3,4-dimethoxypyridine] | – | 0.78 (≈ 2.73 µM) | –
CCCCc1ccc(Cc2nccc3ccccc23)cc1 [Example B2, 1-(4-Butylbenzyl)isoquinoline] | – | 0.39 (≈ 1.42 µM) | –
CCCCc1ccc(Cc2nccc3sccc23)cc1 [Example B187, 4-(4-Butylbenzyl)thieno[3,2-c]pyridine] | – | 0.78 (≈ 2.77 µM) | –
CCCCc1ccc(Cc2nccc3ccccc23)c(O)c1 [Example B85, 5-Butyl-2-(1-isoquinolylmethyl)phenol] | – | 0.20 (≈ 0.686 µM) | –
CC(=O)N(C)CCCc1ccc(Cc2nccc3ccccc23)cc1 [Example B73, N-{3-[4-(1-isoquinolylmethyl)phenyl]propyl}-N1-methylacetamide] | – | 50 (≈ 150 µM) | –
